According to patent US8247424B2, “Fredericamycin derivatives” (Zentopharm GmbH, priority 2002, dated 2012):
Converted amounts (≈) assume the structure as drawn.

Assay: Biological activity against 12 cancer cell lines, efficacy (IC70) averaged over all cell lines;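 also: panel also covers renal lines RXF 944L and RXF 486L, uterine UXF 1138L, and prostate lines PRXF PC3M and PRXF 22RV1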
Type: cell-based
Conditions: averaged over all 12 cancer cell lines, 5 test concentrations
Method: LCL (H460, lung), MACL (MCF7, breast), LXFL (52L, lung), LXFA (629L, lung), MEXF (462NL, melanoma), MEXF (514L, melanoma), MAXF (401NL, breast), RXF (944L, renal), RXF (486L, renal), UXF (1138L, uterus), PRXF (PC3M, prostate), PRXF (22RV1).

SMILES | IC70 [µg/mL]
COC1=CC(=O)c2c(O)c3c(c(O)c2C1=O)C(=O)[C@]1(CCc2cc4cc(C=NOCc5ccc(Cl)cc5)[nH]c(=O)c4c(O)c21)C3=O [Example 217, (8S)-4′,9,9′-trihydroxy-6′-methoxy-1,1′,3′,5′,8′-pentaoxo-1,1′,2,3′,5′,6,7,8′-octahydrospiro[cyclopenta[g]isoquinoline-8,2′-cyclopenta[b]-naphthalene]-3-carbaldehyde O-(4-chlorobenzyl)oxime] | 0.129 (≈ 0.201 µM)
C/C=C/C=C/c1cc2c(F)c3c(c(O)c2c(=O)[nH]1)[C@@]1(CC3)C(=O)c2c(O)c3c(c(O)c2C1=O)C(=O)C(OC)=CC3=O [Example 23, (8S)-5-fluoro-4′,9,9′-trihydroxy-6′-methoxy-3-[(1E,3E)-penta-1,3-dienyl]-6,7-dihydrospiro[cyclopenta[g]isoquinoline-8,2′-cyclopenta[b]-naphthalene]-1,1′,3′,5′,8′(2H)-pentone] | 0.011 (≈ 0.0197 µM)
COC1=CC(=O)c2c(O)c3c(c(O)c2C1=O)C(=O)[C@]1(CCc2c1c(O)c1c(=O)[nH]c(C=NOCc4cccc(F)c4)cc1c2I)C3=O [Example 233, (8S)-5-iodo-4′,9,9′-trihydroxy-6′-methoxy-1,1′,3′,5′,8′-pentaoxo-1,1′,2,3′,5′,6,7,8′-octahydrospiro[cyclopenta[g]isoquinoline-8,2′-cyclopenta[b]-naphthalene]-3-carbaldehyde O-(3-fluorobenzyl)oxime] | 0.1 (≈ 0.133 µM)
COc1cccc2c1C(=O)c1c(O)c3c(c(O)c1C2=O)C[C@@](O)(C(=O)CO)C[C@@H]3O[C@H]1C[C@H](N)[C@H](O)[C@H](C)O1 [adriamycin] | 0.021 (≈ 0.0386 µM)
COC1=CC(=O)c2c(O)c3c(c(O)c2C1=O)C(=O)C1(CCc2cc4cc(C=NOCc5ccccc5)[nH]c(=O)c4c(O)c21)C3=O (centres unmarked) [Example 121, 4′,9,9′-Trihydroxy-6′-methoxy-1,1′,3′,5′,8′-pentaoxo-1,1′,2,3′,5′,6,7,8′-octahydrospiro[cyclopenta[g]isoquinoline-8,2′-cyclopenta[b]-naphthalene]-3-carbaldehyde O-benzyloxime] | 0.202 (≈ 0.333 µM)
CCCCCCON=Cc1cc2cc3c(c(O)c2c(=O)[nH]1)[C@@]1(CC3)C(=O)c2c(O)c3c(c(O)c2C1=O)C(=O)C(OC)=CC3=O [Example 215, (8S)-4′,9,9′-trihydroxy-6′-methoxy-1,1′,3′,5′,8′-pentaoxo-1,1′,2,3′,5′,6,7,8′-octahydrospiro[cyclopenta[g]isoquinoline-8,2′-cyclopenta[b]-naphthalene]-3-carbaldehyde O-n-hexyloxime] | 0.072 (≈ 0.12 µM)
CON=Cc1cc2c(Br)c3c(c(O)c2c(=O)[nH]1)[C@@]1(CC3)C(=O)c2c(O)c3c(c(O)c2C1=O)C(=O)C(OC)=CC3=O [Example 196, (8S)-5-bromo-4′,9,9′-trihydroxy-6′-methoxy-1,1′,3′,5′,8′-pentaoxo-1,1′,2,3′,5′,6,7,8′-octahydrospiro[cyclopenta[g]isoquinoline-8,2′-cyclopenta[b]-naphthalene]-3-carbaldehyde O-methyloxime] | 0.095 (≈ 0.156 µM)
COC1=CC(=O)c2c(O)c3c(c(O)c2C1=O)C(=O)[C@]1(CCc2c1c(O)c1c(=O)[nH]c(C=NOCCN4CCOCC4)cc1c2Br)C3=O [Example 192, (8S)-5-bromo-4′,9,9′-trihydroxy-6′-methoxy-1,1′,3′,5′,8′-pentaoxo-1,1′,2,3′,5′,6,7,8′-octahydrospiro[cyclopenta[g]isoquinoline-8,2′-cyclopenta[b]-naphthalene]-3-carbaldehyde O-[2-morpholine-4-yl-ethyl)oxime] | 0.075 (≈ 0.106 µM)
CCCCCCON=Cc1cc2c(Br)c3c(c(O)c2c(=O)[nH]1)[C@@]1(CC3)C(=O)c2c(O)c3c(c(O)c2C1=O)C(=O)C(OC)=CC3=O [Example 225, (8S)-5-bromo-4′,9,9′-trihydroxy-6′-methoxy-1,1′,3′,5′,8′-pentaoxo-1,1′,2,3′,5′,6,7,8′-octahydrospiro[cyclopenta[g]isoquinoline-8,2′-cyclopenta[b]-naphthalene]-3-carbaldehyde O-n-hexyloxime] | 0.111 (≈ 0.163 µM)
COC1=CC(=O)c2c(O)c3c(c(O)c2C1=O)C(=O)[C@]1(CCc2c1c(O)c1c(=O)[nH]c(C=NOCc4ccc(Cl)cc4)cc1c2I)C3=O [Example 232, (8S)-5-iodo-4′,9,9′-trihydroxy-6′-methoxy-1,1′,3′,5′,8′-pentaoxo-1,1′,2,3′,5′,6,7,8′-octahydrospiro[cyclopenta[g]isoquinoline-8,2′-cyclopenta[b]-naphthalene]-3-carbaldehyde O-(4-chlorobenzyl)oxime] | 0.317 (≈ 0.413 µM)
COC1=CC(=O)c2c(O)c3c(c(O)c2C1=O)C(=O)[C@]1(CCc2c1c(O)c1c(=O)[nH]c(C=NOCc4cccc(Cl)c4)cc1c2Br)C3=O [Example 203, (8S)-5-bromo-4′,9,9′-trihydroxy-6′-methoxy-1,1′,3′,5′,8′-pentaoxo-1,1′,2,3′,5′,6,7,8′-octahydrospiro[cyclopenta[g]isoquinoline-8,2′-cyclopenta[b]-naphthalene]-3-carbaldehyde O-(3-chlorobenzyl)oxime] | 0.159 (≈ 0.221 µM)
COC1=CC(=O)c2c(O)c3c(c(O)c2C1=O)C(=O)C1(CCc2cc4cc(C=NOCc5cccc(Cl)c5)[nH]c(=O)c4c(O)c21)C3=O (centres unmarked) [Example 127, 4′,9,9′-Trihydroxy-6′-methoxy-1,1′,3′,5′,8′-pentaoxo-1,1′,2,3′,5′,6,7,8′-octahydrospiro[cyclopenta[g]isoquinoline-8,2′-cyclopenta[b]-naphthalene]-3-carbaldehyde O-(3-chlorobenzyl)oxime] | 0.155 (≈ 0.242 µM)
COC1=CC(=O)c2c(O)c3c(c(O)c2C1=O)C(=O)[C@]1(CCc2c1c(O)c1c(=O)[nH]c(C=NOC(C)C)cc1c2Br)C3=O [Example 224, (8S)-5-bromo-4′,9,9′-trihydroxy-6′-methoxy-1,1′,3′,5′,8′-pentaoxo-1,1′,2,3′,5′,6,7,8′-octahydrospiro[cyclopenta[g]isoquinoline-8,2′-cyclopenta[b]-naphthalene]-3-carbaldehyde O-isopropyloxime] | 0.047 (≈ 0.0737 µM)
COC1=CC(=O)c2c(O)c3c(c(O)c2C1=O)C(=O)[C@]1(CCc2c1c(O)c1c(=O)[nH]c(C=NOCc4ccccc4)cc1c2I)C3=O [Example 234, (8S)-5-iodo-4′,9,9′-trihydroxy-6′-methoxy-1,1′,3′,5′,8′-pentaoxo-1,1′,2,3′,5′,6,7,8′-octahydrospiro[cyclopenta[g]isoquinoline-8,2′-cyclopenta[b]-naphthalene]-3-carbaldehyde O-benzyloxime] | 0.052 (≈ 0.071 µM)
COC1=CC(=O)c2c(O)c3c(c(O)c2C1=O)C(=O)[C@]1(CCc2c1c(O)c1c(=O)[nH]c(C=NOCCN4CCOCC4)cc1c2I)C3=O [Example 235, (8S)-5-iodo-4′,9,9′-trihydroxy-6′-methoxy-1,1′,3′,5′,8′-pentaoxo-1,1′,2,3′,5′,6,7,8′-octahydrospiro[cyclopenta[g]isoquinoline-8,2′-cyclopenta[b]-naphthalene]-3-carbaldehyde O-[2-morpholine-4-yl-ethyl)oxime] | 0.081 (≈ 0.107 µM)
CCCCCCON=Cc1cc2c(I)c3c(c(O)c2c(=O)[nH]1)[C@@]1(CC3)C(=O)c2c(O)c3c(c(O)c2C1=O)C(=O)C(OC)=CC3=O [Example 230, (8S)-5-iodo-4′,9,9′-trihydroxy-6′-methoxy-1,1′,3′,5′,8′-pentaoxo-1,1′,2,3′,5′,6,7,8′-octahydrospiro[cyclopenta[g]isoquinoline-8,2′-cyclopenta[b]-naphthalene]-3-carbaldehyde O-n-hexyloxime] | 0.091 (≈ 0.125 µM)
COC1=CC(=O)c2c(O)c3c(c(O)c2C1=O)C(=O)[C@]1(CCc2c1c(O)c1c(=O)[nH]c(C=NOCc4ccccc4)cc1c2Br)C3=O [Example 197, (8S)-5-bromo-4′,9,9′-trihydroxy-6′-methoxy-1,1′,3′,5′,8′-pentaoxo-1,1′,2,3′,5′,6,7,8′-octahydrospiro[cyclopenta[g]isoquinoline-8,2′-cyclopenta[b]-naphthalene]-3-carbaldehyde-O-benzyloxime] | 0.034 (≈ 0.0496 µM)
COC1=CC(=O)c2c(O)c3c(c(O)c2C1=O)C(=O)[C@]1(CCc2cc4cc(C=NOCc5cccc(F)c5)[nH]c(=O)c4c(O)c21)C3=O [Example 218, (8S)-4′,9,9′-trihydroxy-6′-methoxy-1,1′,3′,5′,8′-pentaoxo-1,1′,2,3′,5′,6,7,8′-octahydrospiro[cyclopenta[g]isoquinoline-8,2′-cyclopenta[b]-naphthalene]-3-carbaldehyde O-(3-fluorobenzyl)oxime] | 0.076 (≈ 0.122 µM)
COC1=CC(=O)c2c(O)c3c(c(O)c2C1=O)C(=O)[C@]1(CCc2cc4cc(C=NOC(C)C)[nH]c(=O)c4c(O)c21)C3=O [Example 214, (8S)-4′,9,9′-trihydroxy-6′-methoxy-1,1′,3′,5′,8′-pentaoxo-1,1′,2,3′,5′,6,7,8′-octahydrospiro[cyclopenta[g]isoquinoline-8,2′-cyclopenta[b]-naphthalene]-3-carbaldehyde O-isopropyloxime] | 0.022 (≈ 0.0394 µM)
C/C=C/C=C/c1cc2cc3c(c(O)c2c(=O)[nH]1)C1(CC3)C(=O)c2c(O)c3c(c(O)c2C1=O)C(=O)C(OC)=CC3=O (centres unmarked) [fredericamycin, fredericamycin A] | 0.279 (≈ 0.517 µM)
COC1=CC(=O)c2c(O)c3c(c(O)c2C1=O)C(=O)[C@]1(CCc2c1c(O)c1c(=O)[nH]c(C=NOCCCN4CCN(c5cccc(Cl)c5)CC4)cc1c2Br)C3=O [Example 212, (8S)-5-bromo-4′,9,9′-trihydroxy-6′-methoxy-1,1′,3′,5′,8′-pentaoxo-1,1′,2,3′,5′,6,7,8′-octahydrospiro[cyclopenta[g]isoquinoline-8,2′-cyclopenta[b]-naphthalene]-3-carbaldehyde O-[3-(4-(3-chlorophenyl)-piperazine-1-yl)propyl]oxime] | 0.21 (≈ 0.252 µM)
COC1=CC(=O)c2c(O)c3c(c(O)c2C1=O)C(=O)[C@]1(CCc2c1c(O)c1c(=O)[nH]c(C=NO)cc1c2Br)C3=O [Example 198, (8S)-5-bromo-4′,9,9′-trihydroxy-6′-methoxy-1,1′,3′,5′,8′-pentaoxo-1,1′,2,3′,5′,6,7,8′-octahydrospiro[cyclopenta[g]isoquinoline-8,2′-cyclopenta[b]-naphthalene]-3-carbaldehyde oxime] | 0.256 (≈ 0.43 µM)
CON=Cc1cc2c(I)c3c(c(O)c2c(=O)[nH]1)[C@@]1(CC3)C(=O)c2c(O)c3c(c(O)c2C1=O)C(=O)C(OC)=CC3=O [Example 236, (8S)-5-iodo-4′,9,9′-trihydroxy-6′-methoxy-1,1′,3′,5′,8′-pentaoxo-1,1′,2,3′,5′,6,7,8′-octahydrospiro[cyclopenta[g]isoquinoline-8,2′-cyclopenta[b]-naphthalene]-3-carbaldehyde O-methyloxime] | 0.121 (≈ 0.184 µM)
